# Experimental data reported in ChEMBL document CHEMBL1201861, “Genomics of Drug Sensitity in Cancer screening data, Wellcome Trust Sanger Institute”.
# What was measured:
# NCI-H358 = test: cells; assay type: functional, cell-based, Homo sapiens; conditions: Homo sapiens, NCI-H358;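 further: growth inhibition of NCI-H358 human cells, read out with a cell viability assay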
# Description: SANGER: Inhibition of human NCI-H358 cell growth in a cell viability assay.
# SU-DHL-1 = test: SANGER: Inhibition of human SU-DHL-1 cell growth in a cell viability assay.; assay type: functional, cell-based; conditions: Homo sapiens, SU-DHL-1
# T84 = test: cells; assay type: functional, cell-based, Homo sapiens; conditions: Homo sapiens, T84;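 further: growth inhibition measured with a cell viability readout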
# Description: SANGER: Inhibition of human T84 cell growth in a cell viability assay.
# COLO-792 = test: cells; assay type: functional, cell-based, Homo sapiens; conditions: Homo sapiens, COLO-792
# Description: SANGER: Inhibition of human COLO-792 cell growth in a cell viability assay.
# Raji = test: cells; assay type: functional, cell-based, Homo sapiens; conditions: Homo sapiens, Raji;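 further: cell viability assay measuring inhibition of Raji cell growth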
# Description: SANGER: Inhibition of human Raji cell growth in a cell viability assay.
# HuCCT-1 = test: cells; assay type: functional, cell-based, Homo sapiens, HuCCT1; conditions: Homo sapiens, HuCCT-1;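 further: growth inhibition of HuCCT-1 cells, read out by a cell viability assay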
# Description: SANGER: Inhibition of human HuCCT1 cell growth in a cell viability assay.
# MONO-MAC-6 = test: cells; assay type: functional, cell-based, Homo sapiens; conditions: Homo sapiens, MONO-MAC-6;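 further: cell viability assay measuring growth inhibition of human MONO-MAC-6 cells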
# Description: SANGER: Inhibition of human MONO-MAC-6 cell growth in a cell viability assay.
# MDA-MB-415 = test: cells; assay type: functional, cell-based, Homo sapiens; conditions: Homo sapiens, MDA-MB-415
# COR-L105 = test: cells; assay type: functional, cell-based, Homo sapiens; conditions: Homo sapiens, COR-L105
# Description: SANGER: Inhibition of human COR-L105 cell growth in a cell viability assay.
# OE33 = test: cells; assay type: functional, cell-based, Homo sapiens; conditions: Homo sapiens, OE33;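 further: growth inhibition of human OE33 cells, measured by a cell viability assay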
# Description: SANGER: Inhibition of human OE33 cell growth in a cell viability assay.
# Ca9-22 = test: cells; assay type: functional, cell-based, Homo sapiens; conditions: Homo sapiens, Ca9-22;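 further: growth inhibition of Ca9-22 cells, read out with a cell viability assay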
# Description: SANGER: Inhibition of human Ca9-22 cell growth in a cell viability assay.
# KYSE-180 = test: cells; assay type: functional, cell-based, Homo sapiens; conditions: Homo sapiens, KYSE-180;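 further: growth inhibition of KYSE-180 cells, read out with a cell viability assay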
# Description: SANGER: Inhibition of human KYSE-180 cell growth in a cell viability assay.
# SK-MEL-30 = test: cells; assay type: functional, cell-based, Homo sapiens; conditions: Homo sapiens, SK-MEL-30;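 further: growth inhibition of SK-MEL-30 cells, determined with a cell viability assay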
# Description: SANGER: Inhibition of human SK-MEL-30 cell growth in a cell viability assay.
# AGS = test: cells; assay type: functional, cell-based, Homo sapiens; conditions: Homo sapiens, AGS;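 further: growth inhibition of AGS cells, determined with a cell viability assay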
# Description: SANGER: Inhibition of human AGS cell growth in a cell viability assay.
# NCI-H1563 = test: cells; assay type: functional, cell-based, Homo sapiens; conditions: Homo sapiens, NCI-H1563;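 further: growth inhibition of human NCI-H1563 cells, read out with a cell viability assay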
# Description: SANGER: Inhibition of human NCI-H1563 cell growth in a cell viability assay.
# U-118-MG = test: cells; assay type: functional, cell-based, Homo sapiens; conditions: Homo sapiens, U-118-MG
# Description: SANGER: Inhibition of human U-118-MG cell growth in a cell viability assay.
# GMS-10 = test: cells; assay type: functional, cell-based, Homo sapiens; conditions: Homo sapiens, GMS-10;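 further: growth inhibition of GMS-10 cells, read out as cell viability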
# Description: SANGER: Inhibition of human GMS-10 cell growth in a cell viability assay.
# NCI-H2405 = test: cells; assay type: functional, cell-based, Homo sapiens; conditions: Homo sapiens, NCI-H2405;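 further: growth inhibition of the human cell line, read out with a cell viability assay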
# Description: SANGER: Inhibition of human NCI-H2405 cell growth in a cell viability assay.
# D-542MG = test: cells; assay type: functional, cell-based, Homo sapiens; conditions: Homo sapiens, D-542MG
# Description: SANGER: Inhibition of human D-542MG cell growth in a cell viability assay.
# CaR-1 = test: cells; assay type: functional, cell-based, Homo sapiens; conditions: Homo sapiens, CaR-1;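 further: growth inhibition of human CaR-1 cancer cells, read out with a cell viability assay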
# Description: SANGER: Inhibition of human CaR-1 cell growth in a cell viability assay.
# NCI-H1436 = test: cells; assay type: functional, cell-based, Homo sapiens; conditions: Homo sapiens, NCI-H1436;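 further: growth suppression of human NCI-H1436 cells, determined with a cell viability readout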
# Description: SANGER: Inhibition of human NCI-H1436 cell growth in a cell viability assay.
# G-401 = test: cells; assay type: functional, cell-based, Homo sapiens; conditions: Homo sapiens, G-401
# Description: SANGER: Inhibition of human G-401 cell growth in a cell viability assay.
# JIYOYE = test: cells; assay type: functional, cell-based, Homo sapiens; conditions: Homo sapiens, JIYOYE
# Description: SANGER: Inhibition of human JiyoyeP-2003 cell growth in a cell viability assay.
# KYSE-510 = test: cells; assay type: functional, cell-based, Homo sapiens; conditions: Homo sapiens, KYSE-510;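 further: cell viability readout used to measure how strongly growth of the cell line is suppressed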
# Description: SANGER: Inhibition of human KYSE-510 cell growth in a cell viability assay.
# SCC-4 = test: cells; assay type: functional, cell-based, Homo sapiens; conditions: Homo sapiens, SCC-4;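 further: growth inhibition of human SCC-4 cells, read out as cell viability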
# Description: SANGER: Inhibition of human SCC-4 cell growth in a cell viability assay.
# RT-112 = test: cells; assay type: functional, cell-based, Homo sapiens; conditions: Homo sapiens, RT-112
# Description: SANGER: Inhibition of human RT-112 cell growth in a cell viability assay.
# UMUC3 = test: cells; assay type: functional, cell-based, Homo sapiens; conditions: Homo sapiens, UMUC3;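 further: growth inhibition of human UM-UC-3 cells, read out with a cell viability assay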
# Description: SANGER: Inhibition of human UM-UC-3 cell growth in a cell viability assay.
# H4 = test: cells; assay type: functional, cell-based, Homo sapiens; conditions: Homo sapiens, H4
# Description: SANGER: Inhibition of human H4 cell growth in a cell viability assay.
# M059J = test: cells; assay type: functional, cell-based, Homo sapiens; conditions: Homo sapiens, M059J;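 further: growth inhibition of M059J cells, read out with a cell viability assay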
# Description: SANGER: Inhibition of human M059J cell growth in a cell viability assay.
# NCI-H441 = test: cells; assay type: functional, cell-based, Homo sapiens; conditions: Homo sapiens, NCI-H441;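 further: growth inhibition of NCI-H441 cells, read out with a cell viability assay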
# Description: SANGER: Inhibition of human NCI-H441 cell growth in a cell viability assay.
# NCI-H727 = test: cells; assay type: functional, cell-based, Homo sapiens; conditions: Homo sapiens, NCI-H727;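 further: growth inhibition of human NCI-H727 cells, read out with a cell viability assay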
# Description: SANGER: Inhibition of human NCI-H727 cell growth in a cell viability assay.
# THP-1 = test: cells; assay type: functional, cell-based, Homo sapiens; conditions: Homo sapiens, THP-1;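 further: growth inhibition of THP-1 cells, read out via a cell viability assay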
# Description: SANGER: Inhibition of human THP-1 cell growth in a cell viability assay.
# HT-1376 = test: cells; assay type: functional, cell-based, Homo sapiens; conditions: Homo sapiens, HT-1376
# Description: SANGER: Inhibition of human HT-1376 cell growth in a cell viability assay.
# SW837 = test: cells; assay type: functional, cell-based, Homo sapiens; conditions: Homo sapiens, SW837;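 further: growth inhibition of SW837 cells, determined with a cell viability assay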
# Description: SANGER: Inhibition of human SW837 cell growth in a cell viability assay.
# WSU-NHL = test: cells; assay type: functional, cell-based, Homo sapiens; conditions: Homo sapiens, WSU-NHL;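 further: growth inhibition of human WSU-NHL cells, read out with a cell viability assay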
# Description: SANGER: Inhibition of human WSU-NHL cell growth in a cell viability assay.
# CESS = test: SANGER: Inhibition of human CESS cell growth in a cell viability assay.; assay type: functional, cell-based; conditions: Homo sapiens, CESS
# MeWo = test: cells; assay type: functional, cell-based, Homo sapiens; conditions: Homo sapiens, MeWo;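 further: growth inhibition of MeWo cells, determined by a cell viability readout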
# Description: SANGER: Inhibition of human Mewo cell growth in a cell viability assay.
# NCI-H2030 = test: cells; assay type: functional, cell-based, Homo sapiens; conditions: Homo sapiens, NCI-H2030;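 further: growth inhibition of human NCI-H2030 cells, read out by a cell viability assay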
# Description: SANGER: Inhibition of human NCI-H2030 cell growth in a cell viability assay.
# HT1197 = test: cells; assay type: functional, cell-based, Homo sapiens, HT-1197; conditions: Homo sapiens, HT1197
# Description: SANGER: Inhibition of human HT-1197 cell growth in a cell viability assay.
# HCC1599 = test: cells; assay type: functional, cell-based, Homo sapiens; conditions: Homo sapiens, HCC1599;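 further: growth inhibition of HCC1599 cells, read out in a cell viability assay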
# Description: SANGER: Inhibition of human HCC1599 cell growth in a cell viability assay.
# KYSE-150 cell line = test: cells; assay type: functional, cell-based, Homo sapiens; conditions: Homo sapiens, KYSE-150;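 further: growth inhibition of human KYSE-150 cells, read out with a cell viability assay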
# Description: SANGER: Inhibition of human KYSE-150 cell growth in a cell viability assay.
# OPM-2 = test: cells; assay type: functional, cell-based, Homo sapiens; conditions: Homo sapiens, OPM-2;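 further: growth of OPM-2 cells measured with a viability assay, IC50 for suppression of proliferation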
# Description: SANGER: Inhibition of human OPM-2 cell growth in a cell viability assay.
# COR-L279 = test: SANGER: Inhibition of human COR-L279 cell growth in a cell viability assay.; assay type: functional, cell-based; conditions: Homo sapiens, COR-L279
# RCM-1 = test: cells; assay type: functional, cell-based, Homo sapiens; conditions: Homo sapiens, RCM-1;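 further: growth inhibition of the RCM-1 line, determined with a cell viability readout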
# Description: SANGER: Inhibition of human RCM-1 cell growth in a cell viability assay.
# RD = test: cells; assay type: functional, cell-based, Homo sapiens; conditions: Homo sapiens, RD
# Description: SANGER: Inhibition of human RD cell growth in a cell viability assay.
# SCC-3 = test: cells; assay type: functional, cell-based, Homo sapiens; conditions: Homo sapiens, SCC-3;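 further: cell viability assay measuring inhibition of SCC-3 cell growth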
# Description: SANGER: Inhibition of human SCC-3 cell growth in a cell viability assay.
# NCI-H2452 = test: cells; assay type: functional, cell-based, Homo sapiens; conditions: Homo sapiens, NCI-H2452;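 further: growth inhibition of NCI-H2452 cells, read out with a cell viability assay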
# Description: SANGER: Inhibition of human NCI-H2452 cell growth in a cell viability assay.
compound,measurement,setting,value
COc1cccc2c1C(=O)c1c(O)c3c(c(O)c1C2=O)C[C@@](O)(C(=O)CO)C[C@@H]3O[C@H]1C[C@H](N)[C@H](O)[C@H](C)O1 [DOXORUBICIN],IC50,NCI-H358,0.0411 µM
same,IC50,SU-DHL-1,0.103 µM
same,IC50,T84,0.0571 µM
same,IC50,COLO-792,> 1.02 µM
same,IC50,Raji,0.335 µM
same,IC50,HuCCT-1,0.0729 µM
same,IC50,MONO-MAC-6,0.154 µM
same,IC50,MDA-MB-415,> 1.02 µM
same,IC50,COR-L105,0.189 µM
same,IC50,OE33,0.426 µM
same,IC50,Ca9-22,0.0501 µM
same,IC50,KYSE-180,0.0598 µM
same,IC50,SK-MEL-30,0.0356 µM
same,IC50,AGS,0.0133 µM
same,IC50,NCI-H1563,0.556 µM
same,IC50,U-118-MG,0.856 µM
same,IC50,GMS-10,> 1.02 µM
same,IC50,NCI-H2405,0.234 µM
same,IC50,D-542MG,> 1.02 µM
same,IC50,CaR-1,> 1.02 µM
same,IC50,NCI-H1436,> 1.02 µM
same,IC50,G-401,0.0302 µM
same,IC50,JIYOYE,0.138 µM
same,IC50,KYSE-510,0.0155 µM
same,IC50,SCC-4,0.184 µM
same,IC50,RT-112,0.0329 µM
same,IC50,UMUC3,0.086 µM
same,IC50,H4,0.0716 µM
same,IC50,M059J,0.0314 µM
same,IC50,NCI-H441,0.0284 µM
same,IC50,NCI-H727,0.0228 µM
same,IC50,THP-1,0.989 µM
same,IC50,HT-1376,0.189 µM
same,IC50,SW837,0.118 µM
same,IC50,WSU-NHL,0.155 µM
same,IC50,CESS,0.0394 µM
same,IC50,MeWo,> 1.02 µM
same,IC50,NCI-H2030,0.0283 µM
same,IC50,HT1197,0.213 µM
same,IC50,HCC1599,0.0725 µM
same,IC50,KYSE-150 cell line,0.0278 µM
same,IC50,OPM-2,0.502 µM
same,IC50,COR-L279,0.0569 µM
same,IC50,RCM-1,> 1.02 µM
same,IC50,RD,0.18 µM
same,IC50,SCC-3,0.0673 µM
same,IC50,NCI-H2452,> 1.02 µM
N#Cc1c(O)c2c(-c3ccc(-c4ccccc4O)cc3)csc2[nH]c1=O,IC50,NCI-H358,> 1.02 µM
same,IC50,SU-DHL-1,> 1.02 µM
same,IC50,T84,> 1.02 µM
same,IC50,COLO-792,> 1.02 µM
same,IC50,Raji,0.67 µM
same,IC50,HuCCT-1,> 1.02 µM
same,IC50,MONO-MAC-6,0.114 µM
same,IC50,MDA-MB-415,> 1.02 µM
same,IC50,COR-L105,> 1.02 µM
same,IC50,OE33,> 1.02 µM
same,IC50,Ca9-22,> 1.02 µM
same,IC50,KYSE-180,> 1.02 µM
same,IC50,SK-MEL-30,> 1.02 µM
same,IC50,AGS,> 1.02 µM
same,IC50,NCI-H1563,> 1.02 µM
same,IC50,U-118-MG,> 1.02 µM
same,IC50,GMS-10,> 1.02 µM
same,IC50,NCI-H2405,> 1.02 µM
same,IC50,D-542MG,> 1.02 µM
same,IC50,CaR-1,> 1.02 µM
same,IC50,NCI-H1436,0.59 µM
same,IC50,G-401,> 1.02 µM
same,IC50,JIYOYE,0.0837 µM
same,IC50,KYSE-510,> 1.02 µM
same,IC50,SCC-4,> 1.02 µM
same,IC50,RT-112,> 1.02 µM
same,IC50,UMUC3,> 1.02 µM
same,IC50,H4,> 1.02 µM
same,IC50,M059J,> 1.02 µM
same,IC50,NCI-H441,> 1.02 µM
same,IC50,NCI-H727,> 1.02 µM
same,IC50,THP-1,0.342 µM
same,IC50,HT-1376,> 1.02 µM
same,IC50,SW837,> 1.02 µM
same,IC50,WSU-NHL,0.297 µM
same,IC50,CESS,0.101 µM
same,IC50,MeWo,> 1.02 µM
same,IC50,NCI-H2030,> 1.02 µM
same,IC50,HT1197,> 1.02 µM
same,IC50,HCC1599,0.278 µM
same,IC50,KYSE-150 cell line,> 1.02 µM
same,IC50,OPM-2,0.218 µM
same,IC50,COR-L279,0.253 µM
same,IC50,RCM-1,> 1.02 µM
same,IC50,RD,> 1.02 µM
same,IC50,SCC-3,> 1.02 µM
same,IC50,NCI-H2452,> 1.02 µM
